Measured values as given in PubChem BioAssay (NCI).
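GI50 is the concentration that inhibits growth by half. TGI marks complete inhibition of growth.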

Assays:
Assay in all cases: NCI anticancer screen, dose series, 384-well format
A549 NSCLC = tested on: A549 NSCLC
K-562 leukemia = tested on: K-562 leukemia
EKVX NSCLC = tested on: EKVX NSCLC
HOP-92 NSCLC = tested on: HOP-92 NSCLC
SK-MEL-5 melanoma = tested on: SK-MEL-5 melanoma
TK-10 renal = tested on: TK-10 renal
HS 578T breast = tested on: HS 578T breast
RXF 393 renal = tested on: RXF 393 renal
T-47D breast = tested on: T-47D breast
SNB-75 CNS = tested on: SNB-75 CNS
HCC-2998 colon = tested on: HCC-2998 colon
BT-549 breast = tested on: BT-549 breast
UACC-62 melanoma = tested on: UACC-62 melanoma
LOX IMVI melanoma = tested on: LOX IMVI melanoma
MCF7 breast = tested on: MCF7 breast
SF-295 CNS = tested on: SF-295 CNS
SR leukemia = tested on: SR leukemia
HCT-15 colon = tested on: HCT-15 colon
SF-268 CNS = tested on: SF-268 CNS
786-0 renal = tested on: 786-0 renal
OVCAR-8 ovarian = tested on: OVCAR-8 ovarian
DU-145 prostate = tested on: DU-145 prostate
NCI-H322M lung = tested on: NCI-H322M lung
CCRF-CEM leukemia = tested on: CCRF-CEM leukemia
NCI-H460 NSCLC = tested on: NCI-H460 NSCLC
RPMI-8226 leukemia = tested on: RPMI-8226 leukemia
MDA-MB-435 melanoma = tested on: MDA-MB-435 melanoma
MDA-MB-231 breast = tested on: MDA-MB-231 breast
OVCAR-4 ovarian = tested on: OVCAR-4 ovarian
M14 melanoma = tested on: M14 melanoma
SF-539 CNS = tested on: SF-539 CNS
MOLT-4 leukemia = tested on: MOLT-4 leukemia
SK-OV-3 ovarian = tested on: SK-OV-3 ovarian
CAKI-1 renal = tested on: CAKI-1 renal
SNB-19 CNS = tested on: SNB-19 CNS
MDA-MB-468 breast = tested on: MDA-MB-468 breast
UO-31 renal = tested on: UO-31 renal
KM12 colon = tested on: KM12 colon
NCI-H23 lung = tested on: NCI-H23 lung
MALME-3M melanoma = tested on: MALME-3M melanoma
SW-620 colon = tested on: SW-620 colon
NCI-H522 lung = tested on: NCI-H522 lung
HL-60(TB) leukemia = tested on: HL-60(TB) leukemia
SN12C renal = tested on: SN12C renal
PC-3 prostate = tested on: PC-3 prostate
A498 renal = tested on: A498 renal
HT29 colon = tested on: HT29 colon
IGROV1 ovarian = tested on: IGROV1 ovarian
OVCAR-3 ovarian = tested on: OVCAR-3 ovarian
ACHN renal = tested on: ACHN renal
COLO 205 colon = tested on: COLO 205 colon
UACC-257 melanoma = tested on: UACC-257 melanoma
NCI-H226 lung = tested on: NCI-H226 lung
NCI/ADR-RES ovarian = tested on: NCI/ADR-RES ovarian
OVCAR-5 ovarian = tested on: OVCAR-5 ovarian
HOP-62 NSCLC = tested on: HOP-62 NSCLC
U251 glioblastoma = tested on: U251 glioblastoma
SK-MEL-28 melanoma = tested on: SK-MEL-28 melanoma

Cn1cc(-c2cnc3ccc4ccc(CS(=O)(=O)NCc5ccccn5)cc4c(=O)c3c2)cn1
GI50 (A549 NSCLC): 40.4 µM | TGI (A549 NSCLC): > 100 µM | GI50 (K-562 leukemia): 5.42 µM | TGI (K-562 leukemia): 17.8 µM | GI50 (EKVX NSCLC): 17.9 µM | TGI (EKVX NSCLC): 35.7 µM | GI50 (HOP-92 NSCLC): 14.7 µM | TGI (HOP-92 NSCLC): 34.1 µM | GI50 (SK-MEL-5 melanoma): 8.26 µM | TGI (SK-MEL-5 melanoma): 20.8 µM | GI50 (TK-10 renal): 20.8 µM | TGI (TK-10 renal): 51.5 µM | GI50 (HS 578T breast): 14.4 µM | TGI (HS 578T breast): 33.3 µM | GI50 (RXF 393 renal): 13.5 µM | TGI (RXF 393 renal): 26.8 µM | GI50 (T-47D breast): 15.5 µM | TGI (T-47D breast): 30.5 µM | GI50 (SNB-75 CNS): 15.9 µM | TGI (SNB-75 CNS): 30.2 µM | GI50 (HCC-2998 colon): 15 µM | TGI (HCC-2998 colon): 28.7 µM | GI50 (BT-549 breast): 14.9 µM | TGI (BT-549 breast): 30.8 µM | GI50 (UACC-62 melanoma): 12 µM | TGI (UACC-62 melanoma): 24.5 µM | GI50 (LOX IMVI melanoma): 16.3 µM | TGI (LOX IMVI melanoma): 30.2 µM | GI50 (MCF7 breast): 10 µM | TGI (MCF7 breast): 26.9 µM | GI50 (SF-295 CNS): 13.3 µM | TGI (SF-295 CNS): 33.8 µM | GI50 (SR leukemia): 1.91 µM | TGI (SR leukemia): 4.24 µM | GI50 (HCT-15 colon): 4.28 µM | TGI (HCT-15 colon): 14.7 µM | GI50 (SF-268 CNS): 18.4 µM | TGI (SF-268 CNS): 38.6 µM | GI50 ([…]-0 renal): 37.6 µM | TGI (786-0 renal): > 100 µM | GI50 (OVCAR-8 ovarian): 16.2 µM | TGI (OVCAR-8 ovarian): 36.5 µM | GI50 (DU-145 prostate): 20 µM | TGI (DU-145 prostate): 51.2 µM | GI50 (NCI-H322M lung): 21.3 µM | TGI (NCI-H322M lung): 64.6 µM | GI50 (CCRF-CEM leukemia): 7.51 µM | TGI (CCRF-CEM leukemia): 19.8 µM | GI50 (NCI-H460 NSCLC): 15.1 µM | TGI (NCI-H460 NSCLC): 28.9 µM | GI50 (RPMI-8226 leukemia): 5.18 µM | TGI (RPMI-8226 leukemia): 17.5 µM | GI50 (MDA-MB-435 melanoma): 3.77 µM | TGI (MDA-MB-435 melanoma): 12.2 µM | GI50 (MDA-MB-231 breast): 15.2 µM | TGI (MDA-MB-231 breast): 30.4 µM | GI50 (OVCAR-4 ovarian): 14.9 µM | TGI (OVCAR-4 ovarian): 29.6 µM | GI50 (M14 melanoma): 12.9 µM | TGI (M14 melanoma): 26.1 µM | GI50 (SF-539 CNS): 15.3 µM | TGI (SF-539 CNS): 28.9 µM | GI50 (MOLT-4 leukemia): 3.23 µM | TGI (MOLT-4 leukemia): 10.6 µM | GI50 (SK-OV-3 ovarian): 13.4 µM | TGI (SK-OV-3 ovarian): 31.3 µM | GI50 (CAKI-1 renal): 32.7 µM | TGI (CAKI-1 renal): > 100 µM | GI50 (SNB-19 CNS): 20.8 µM | TGI (SNB-19 CNS): 53.1 µM | GI50 (MDA-MB-468 breast): 2.79 µM | TGI (MDA-MB-468 breast): 7.05 µM | GI50 (UO-31 renal): 35.9 µM | TGI (UO-31 renal): > 100 µM | GI50 (KM12 colon): 11.4 µM | TGI (KM12 colon): 26.6 µM | GI50 (NCI-H23 lung): 11.6 µM | TGI (NCI-H23 lung): 24.5 µM | GI50 (MALME-3M melanoma): 12.3 µM | TGI (MALME-3M melanoma): 25.4 µM | GI50 (SW-620 colon): 14 µM | TGI (SW-620 colon): 28.8 µM | GI50 (NCI-H522 lung): 13.1 µM | TGI (NCI-H522 lung): 25.9 µM | GI50 (HL-60(TB) leukemia): 13.2 µM | TGI (HL-60(TB) leukemia): 26 µM | GI50 (SN12C renal): 19.9 µM | TGI (SN12C renal): 46.4 µM | GI50 (PC-3 prostate): 20.5 µM | TGI (PC-3 prostate): 42.5 µM | GI50 (A498 renal): 23.1 µM | TGI (A498 renal): > 100 µM | GI50 (HT29 colon): 15.4 µM | TGI (HT29 colon): 32.7 µM | GI50 (IGROV1 ovarian): 16.7 µM | TGI (IGROV1 ovarian): 33 µM | GI50 (OVCAR-3 ovarian): 14 µM | TGI (OVCAR-3 ovarian): 28.1 µM | GI50 (ACHN renal): 24.7 µM | TGI (ACHN renal): 98.4 µM | GI50 (COLO 205 colon): 34.1 µM | TGI (COLO 205 colon): > 100 µM | GI50 (UACC-257 melanoma): 18.3 µM | TGI (UACC-257 melanoma): 32.3 µM | GI50 (NCI-H226 lung): 13.7 µM | TGI (NCI-H226 lung): 30.5 µM | GI50 (NCI/ADR-RES ovarian): 16.2 µM | TGI (NCI/ADR-RES ovarian): 37.4 µM | GI50 (OVCAR-5 ovarian): 25.4 µM | TGI (OVCAR-5 ovarian): 49.3 µM | GI50 (HOP-62 NSCLC): 13 µM | TGI (HOP-62 NSCLC): 27.8 µM | GI50 (U251 glioblastoma): 21.2 µM | TGI (U251 glioblastoma): 65.3 µM | GI50 (SK-MEL-28 melanoma): 17 µM | TGI (SK-MEL-28 melanoma): 32 µM
